Measurements reported in patent US20240229116A9, “METHOD FOR DETECTING MICRORNA IN BIOLOGICAL SAMPLE, COMPOSITION OF HYDROCHLORIDE OF NEUTRAL AMINO ACID, AND CONTAINER” (Toray Industries, Inc., priority 2021, published 2024).
Counter-ions that a name gives are not always drawn. Blank lines part the entries; values can stand above or below the compound they belong to.

What was measured:
microRNAs in serum = experiment: Detection of microRNAs from serum preserved after mixing with acid (3D-Gene DNA microarray, total fluorescence intensity); design: species or system human
Protocol: The serum which had been mixed with the acid in the step (A) was left to stand and preserved at 23° C. for 48 hours.
A quantity of 27 μL of a 4 M aqueous solution of tris(hydroxymethyl)aminomethane (manufactured by Nacalai Tesque Inc.) was mixed with the serum preserved in the step (B). […]
From the serum which had been mixed with the base in the step (C), microRNAs were collected using an RNA extraction reagent included in a 3D-Gene (registered trademark) RNA extraction reagent from liquid sample kit (manufactured by Toray Industries, Inc.), in accordance with the protocol defined by the company.
The microRNAs collected from the serum in the step (D) were fluorescently labeled, using a 3D-Gene (registered trademark) miRNA Labeling kit (manufactured by Toray Industries, Inc.), and in accordance with the protocol defined by the company. Using a 3D-Gene (registered trademark) Human miRNA Oligo chip (manufactured by Toray Industries, Inc.) containing probes having sequences complementary to 2,565 types of microRNAs, as a DNA microarray chip, hybridization was carried out in accordance with the protocol defined by the company. The DNA microarray chip was scanned using a 3D-Gene (registered trademark) scanner (manufactured by Toray Industries, Inc.), to obtain an image. The fluorescence intensities were digitized using a 3D-Gene (registered trademark) Extraction (manufactured by Toray Industries, Inc.), and the total value of the fluorescence intensities of the microRNAs which had been detected exceeding the detection limit was calculated, and the calculated value was defined as the detection level of the microRNAs.

[1] = pH adjustment of serum (dissolved state in serum and pH of serum); format: physicochemical, human; details: 1 mL serum added to 0.1 g composition (65 mg solid of glycine hydrochloride), 23° C. one minute
Protocol: From the upper layer of the serum in the tube, 0.1 mL of the serum was collected, and the measurement of the pH was performed using a handy pH meter (manufactured by HORIBA, Ltd.).

[2] = Example 13: serum of healthy subject Y, pH 3.1 after acid, 23° C. 48 hours, Tris base to pH 7.8
[3] = Example 14: subject Y serum, pH 3.1 after acid, 23° C. 48 hours, Tris base to pH 6.0
[4] = Example 15: subject Y serum, pH 3.1 after acid, 23° C. 48 hours, Tris base to pH 7.0
[5] = Example 16: subject Y serum, pH 3.1 after acid, 23° C. 48 hours, no base mixed (pH 3.1)
[6] = Comparative Example 3: subject X serum, no acid (pH 7.5), 23° C. 48 hours, Tris base to pH 7.7

- pH of serum ([1]; upper layer, pH 7.7 before the addition): 4.5
- dissolved state in serum ([1]; visual observation): did not quickly dissolve in the serum
Compound: NCC(=O)O [Glycine hydrochloride, glycine hydrochloride]
- Total value of fluorescence intensities (microRNAs in serum; Example 1: serum of healthy subject X, pH 2.8 after mixing acid, preserved 23° C. 48 hours, Tris base to pH 7.5): 9.81 × 10^5
- Total value of fluorescence intensities (microRNAs in serum; Example 2: subject X serum, pH 2.8 after acid, 23° C. 48 hours, Tris base to pH 7.7): 9.51 × 10^5
- Total value of fluorescence intensities (microRNAs in serum; Example 3: subject X serum, pH 2.8 after acid, 23° C. 48 hours, Tris base to pH 8.0): 1.10 × 10^6
- Total value of fluorescence intensities (microRNAs in serum; Example 4: subject X serum, pH 2.8 after acid, 23° C. 48 hours, Tris base to pH 8.5): 8.99 × 10^5
- Total value of fluorescence intensities (microRNAs in serum; Example 5: subject X serum, pH 2.8 after acid, 23° C. 48 hours, Tris base to pH 9.0): 7.89 × 10^5
- Total value of fluorescence intensities (microRNAs in serum; Example 6: subject X serum, pH 2.8 after acid, 23° C. 48 hours, Tris base to pH 6.0): 7.19 × 10^5
- Total value of fluorescence intensities (microRNAs in serum; Example 7: subject X serum, pH 2.8 after acid, 23° C. 48 hours, Tris base to pH 7.0): 7.23 × 10^5
- Total value of fluorescence intensities (microRNAs in serum; Example 8: subject X serum, pH 2.8 after acid, 23° C. 48 hours, no base mixed (pH 2.8)): 6.25 × 10^5
- Total value of fluorescence intensities (microRNAs in serum; Example 9: subject X serum, pH 4.0 after acid, 23° C. 48 hours, Tris base to pH 7.7): 1.05 × 10^6
- Total value of fluorescence intensities (microRNAs in serum; Example 10: subject X serum, pH 2.8 after acid, 23° C. 2 hours, Tris base to pH 7.7): 8.70 × 10^5
- Total value of fluorescence intensities (microRNAs in serum; Example 11: subject X serum, pH 2.8 after acid, 23° C. 6 hours, Tris base to pH 7.7): 9.07 × 10^5
- Total value of fluorescence intensities (microRNAs in serum; Example 12: subject X serum, pH 2.8 after acid, 23° C. 96 hours, Tris base to pH 7.7): 1.00 × 10^6

Compound: O=C(O)CC(O)(CC(=O)O)C(=O)O [Citric acid, citric acid]
- Fluorescence intensities relative to before preservation (microRNAs in serum; [2]): 104.5%
- Total value of fluorescence intensities (microRNAs in serum; [2]): 1.10 × 10^6
- Fluorescence intensities relative to before preservation (microRNAs in serum; Example 13: serum of healthy subject Y, pH 3.1 after acid, 23° C. 48 hours, Tris base to pH 7.8, listed as citric acid): ≥ 100%
- Fluorescence intensities relative to before preservation (microRNAs in serum; [3]): 85.0%
- Total value of fluorescence intensities (microRNAs in serum; [3]): 8.95 × 10^5
- Fluorescence intensities relative to before preservation (microRNAs in serum; Example 14: subject Y serum, pH 3.1 after acid, 23° C. 48 hours, Tris base to pH 6.0, listed as citric acid): ≥ 70%
- Fluorescence intensities relative to before preservation (microRNAs in serum; [4]): 85.5%
- Total value of fluorescence intensities (microRNAs in serum; [4]): 9.00 × 10^5
- Fluorescence intensities relative to before preservation (microRNAs in serum; Example 15: subject Y serum, pH 3.1 after acid, 23° C. 48 hours, Tris base to pH 7.0, listed as citric acid): ≥ 70%
- Fluorescence intensities relative to before preservation (microRNAs in serum; [5]): 75.2%
- Total value of fluorescence intensities (microRNAs in serum; [5]): 7.92 × 10^5
- Fluorescence intensities relative to before preservation (microRNAs in serum; Example 16: subject Y serum, pH 3.1 after acid, 23° C. 48 hours, no base mixed (pH 3.1), listed as citric acid): ≥ 70%

Compound: tris(hydroxymethyl)aminomethane
- Fluorescence intensities relative to before preservation (microRNAs in serum; [6]): 16.3%
- Total value of fluorescence intensities (microRNAs in serum; [6]): 1.39 × 10^5
